Targets include CAMKK2 (Homo sapiens, UniProt Q96RR4); CLK3 (Homo sapiens, UniProt P49761); NEK10 (Homo sapiens, UniProt Q6ZWH5); STK39 (Homo sapiens, UniProt Q9UEW8); DDR2 (Homo sapiens, UniProt Q16832); RIPK2 (Homo sapiens, UniProt O43353); SRC (Homo sapiens, UniProt P12931); PRKD2 (Homo sapiens, UniProt Q9BZL6); DAPK2 (Homo sapiens, UniProt Q9UIK4); ERN1 (Homo sapiens, UniProt O75460); CLK2 (Homo sapiens, UniProt P49760); AURKC (Homo sapiens, UniProt Q9UQB9); STK24 (Homo sapiens, UniProt Q9Y6E0); ACVR1B (Homo sapiens, UniProt P36896); PKMYT1 (Homo sapiens, UniProt Q99640).

Assay in all cases: biochemical
Common to all, as to set-up: KINOMEscan competition binding, DNA-tagged kinase against immobilised ligand, qPCR read-out
What all share (details): read-out: Percent Control

Test [1] deals with T1, RSK4(Kin.Dom.1-N-terminal) (Homo sapiens, UniProt Q9UK32).
T1 construct: gene RPS6KA6; Kin.Dom.1 N-terminal

For another test, the target named is T2, MGC42105 (Homo sapiens, UniProt Q8IY84).
T2 construct: gene NIM1K

Test [2] concerns the target T3, RPS6KA5(Kin.Dom.1-N-terminal) (Homo sapiens, UniProt O75582).
T3 construct: Kin.Dom.1 N-terminal

The target in the next test is T4, CABC1 (Homo sapiens, UniProt Q8NI60).
T4 construct: gene COQ8A
T4 sequence (Q8NI60 whole entry): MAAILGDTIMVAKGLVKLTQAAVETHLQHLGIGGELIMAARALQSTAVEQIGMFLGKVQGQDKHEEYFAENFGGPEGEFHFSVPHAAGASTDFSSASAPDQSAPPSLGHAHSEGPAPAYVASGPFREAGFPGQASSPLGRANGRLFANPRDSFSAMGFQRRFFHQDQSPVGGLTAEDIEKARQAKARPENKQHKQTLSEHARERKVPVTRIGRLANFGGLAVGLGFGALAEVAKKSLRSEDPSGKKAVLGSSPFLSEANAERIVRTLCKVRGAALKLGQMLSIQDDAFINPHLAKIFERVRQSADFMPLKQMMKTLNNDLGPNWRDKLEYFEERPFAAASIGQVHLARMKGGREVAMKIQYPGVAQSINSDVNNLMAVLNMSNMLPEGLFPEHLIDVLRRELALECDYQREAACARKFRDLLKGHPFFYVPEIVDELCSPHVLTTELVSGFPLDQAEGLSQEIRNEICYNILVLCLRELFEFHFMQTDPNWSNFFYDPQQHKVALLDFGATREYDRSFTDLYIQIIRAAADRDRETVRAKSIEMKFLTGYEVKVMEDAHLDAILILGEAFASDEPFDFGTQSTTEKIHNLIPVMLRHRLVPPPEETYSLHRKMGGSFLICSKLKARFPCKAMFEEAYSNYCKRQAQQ

Sequence of DDR2 (Q16832 whole entry): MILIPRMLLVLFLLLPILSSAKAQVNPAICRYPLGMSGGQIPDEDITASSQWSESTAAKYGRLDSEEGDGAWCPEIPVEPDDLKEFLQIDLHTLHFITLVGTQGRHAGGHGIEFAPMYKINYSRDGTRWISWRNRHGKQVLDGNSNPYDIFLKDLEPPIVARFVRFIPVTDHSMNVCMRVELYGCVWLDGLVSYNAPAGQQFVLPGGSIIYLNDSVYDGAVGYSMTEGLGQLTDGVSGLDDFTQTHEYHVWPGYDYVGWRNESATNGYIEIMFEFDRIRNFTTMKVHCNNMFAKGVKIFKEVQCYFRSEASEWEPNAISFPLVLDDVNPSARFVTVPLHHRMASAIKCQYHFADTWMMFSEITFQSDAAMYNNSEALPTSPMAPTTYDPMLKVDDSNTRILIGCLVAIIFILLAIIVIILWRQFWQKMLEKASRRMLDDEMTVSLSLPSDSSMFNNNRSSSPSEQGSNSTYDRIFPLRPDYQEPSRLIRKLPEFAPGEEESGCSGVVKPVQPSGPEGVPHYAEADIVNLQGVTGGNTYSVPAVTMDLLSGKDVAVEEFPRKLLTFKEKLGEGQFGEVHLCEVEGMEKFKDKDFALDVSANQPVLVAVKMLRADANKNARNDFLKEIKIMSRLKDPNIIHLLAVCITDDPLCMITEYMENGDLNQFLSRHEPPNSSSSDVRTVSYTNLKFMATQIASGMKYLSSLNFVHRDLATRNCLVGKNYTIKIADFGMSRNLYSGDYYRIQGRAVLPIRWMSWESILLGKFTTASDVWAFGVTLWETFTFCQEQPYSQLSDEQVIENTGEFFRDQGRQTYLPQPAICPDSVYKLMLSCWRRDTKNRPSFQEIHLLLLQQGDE
Sequence of CLK2 (P49760 whole entry): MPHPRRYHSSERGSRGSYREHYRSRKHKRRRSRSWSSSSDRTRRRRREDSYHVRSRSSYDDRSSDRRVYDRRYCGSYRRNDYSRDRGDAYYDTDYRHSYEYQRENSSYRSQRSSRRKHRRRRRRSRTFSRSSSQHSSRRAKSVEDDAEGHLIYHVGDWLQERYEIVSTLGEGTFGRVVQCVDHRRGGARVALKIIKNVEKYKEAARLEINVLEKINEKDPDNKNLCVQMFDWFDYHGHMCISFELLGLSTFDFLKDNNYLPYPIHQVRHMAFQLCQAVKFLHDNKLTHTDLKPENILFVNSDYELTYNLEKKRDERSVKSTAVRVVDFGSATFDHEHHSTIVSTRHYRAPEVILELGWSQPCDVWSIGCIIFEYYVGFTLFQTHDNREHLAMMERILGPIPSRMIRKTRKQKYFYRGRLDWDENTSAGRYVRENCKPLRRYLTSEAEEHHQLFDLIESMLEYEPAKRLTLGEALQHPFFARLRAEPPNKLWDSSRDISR
Sequence of NEK10 (Q6ZWH5 whole entry): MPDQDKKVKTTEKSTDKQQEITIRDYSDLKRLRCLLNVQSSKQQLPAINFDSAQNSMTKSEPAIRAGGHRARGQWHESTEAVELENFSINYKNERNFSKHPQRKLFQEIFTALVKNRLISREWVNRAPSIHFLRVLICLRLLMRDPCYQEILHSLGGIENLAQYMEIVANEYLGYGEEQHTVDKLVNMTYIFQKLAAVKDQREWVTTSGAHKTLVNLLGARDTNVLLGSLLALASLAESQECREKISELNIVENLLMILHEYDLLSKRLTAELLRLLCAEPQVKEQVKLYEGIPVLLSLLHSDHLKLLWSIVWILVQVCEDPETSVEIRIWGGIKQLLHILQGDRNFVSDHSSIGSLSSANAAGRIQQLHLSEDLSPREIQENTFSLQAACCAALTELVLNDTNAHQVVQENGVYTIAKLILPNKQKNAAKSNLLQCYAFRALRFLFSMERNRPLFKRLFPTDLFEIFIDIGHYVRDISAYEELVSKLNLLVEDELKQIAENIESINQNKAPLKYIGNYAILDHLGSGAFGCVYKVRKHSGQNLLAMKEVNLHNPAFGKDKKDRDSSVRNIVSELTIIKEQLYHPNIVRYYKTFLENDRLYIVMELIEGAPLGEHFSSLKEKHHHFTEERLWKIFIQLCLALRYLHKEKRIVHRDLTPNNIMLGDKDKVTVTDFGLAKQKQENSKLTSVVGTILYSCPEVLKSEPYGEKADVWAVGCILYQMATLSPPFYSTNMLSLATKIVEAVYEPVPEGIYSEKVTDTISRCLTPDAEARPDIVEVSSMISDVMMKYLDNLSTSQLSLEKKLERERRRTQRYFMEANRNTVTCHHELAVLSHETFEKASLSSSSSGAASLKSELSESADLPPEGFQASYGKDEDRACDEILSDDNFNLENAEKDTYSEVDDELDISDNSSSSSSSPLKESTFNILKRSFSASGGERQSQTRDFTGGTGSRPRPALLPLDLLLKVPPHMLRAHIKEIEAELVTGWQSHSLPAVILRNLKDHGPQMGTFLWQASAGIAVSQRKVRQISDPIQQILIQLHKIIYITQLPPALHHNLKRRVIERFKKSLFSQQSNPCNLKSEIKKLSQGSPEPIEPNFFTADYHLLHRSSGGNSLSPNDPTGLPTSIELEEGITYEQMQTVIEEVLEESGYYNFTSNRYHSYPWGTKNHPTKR
Sequence of PRKD2 (Q9BZL6 whole entry): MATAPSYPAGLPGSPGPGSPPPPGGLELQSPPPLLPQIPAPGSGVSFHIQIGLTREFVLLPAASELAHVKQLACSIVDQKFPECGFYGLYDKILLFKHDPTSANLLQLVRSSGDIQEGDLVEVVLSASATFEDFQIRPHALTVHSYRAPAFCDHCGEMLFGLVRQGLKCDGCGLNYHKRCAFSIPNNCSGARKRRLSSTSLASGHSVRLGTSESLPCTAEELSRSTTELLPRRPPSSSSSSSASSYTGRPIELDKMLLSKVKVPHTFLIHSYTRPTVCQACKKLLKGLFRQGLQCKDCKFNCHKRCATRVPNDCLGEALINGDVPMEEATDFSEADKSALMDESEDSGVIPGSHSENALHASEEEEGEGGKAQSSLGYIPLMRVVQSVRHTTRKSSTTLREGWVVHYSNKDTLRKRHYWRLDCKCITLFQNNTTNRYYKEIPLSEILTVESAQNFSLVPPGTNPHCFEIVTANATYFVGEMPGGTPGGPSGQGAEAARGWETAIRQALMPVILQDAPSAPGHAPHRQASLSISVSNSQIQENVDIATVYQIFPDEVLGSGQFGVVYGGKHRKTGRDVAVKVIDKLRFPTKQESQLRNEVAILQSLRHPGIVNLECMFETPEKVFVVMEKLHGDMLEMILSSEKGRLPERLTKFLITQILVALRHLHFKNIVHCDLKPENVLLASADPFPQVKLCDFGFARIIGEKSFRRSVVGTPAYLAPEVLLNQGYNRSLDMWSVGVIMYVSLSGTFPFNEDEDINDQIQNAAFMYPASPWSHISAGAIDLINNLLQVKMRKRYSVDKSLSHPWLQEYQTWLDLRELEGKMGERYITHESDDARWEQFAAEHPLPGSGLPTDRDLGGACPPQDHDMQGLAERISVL
T1 sequence (Q9UK32 whole entry): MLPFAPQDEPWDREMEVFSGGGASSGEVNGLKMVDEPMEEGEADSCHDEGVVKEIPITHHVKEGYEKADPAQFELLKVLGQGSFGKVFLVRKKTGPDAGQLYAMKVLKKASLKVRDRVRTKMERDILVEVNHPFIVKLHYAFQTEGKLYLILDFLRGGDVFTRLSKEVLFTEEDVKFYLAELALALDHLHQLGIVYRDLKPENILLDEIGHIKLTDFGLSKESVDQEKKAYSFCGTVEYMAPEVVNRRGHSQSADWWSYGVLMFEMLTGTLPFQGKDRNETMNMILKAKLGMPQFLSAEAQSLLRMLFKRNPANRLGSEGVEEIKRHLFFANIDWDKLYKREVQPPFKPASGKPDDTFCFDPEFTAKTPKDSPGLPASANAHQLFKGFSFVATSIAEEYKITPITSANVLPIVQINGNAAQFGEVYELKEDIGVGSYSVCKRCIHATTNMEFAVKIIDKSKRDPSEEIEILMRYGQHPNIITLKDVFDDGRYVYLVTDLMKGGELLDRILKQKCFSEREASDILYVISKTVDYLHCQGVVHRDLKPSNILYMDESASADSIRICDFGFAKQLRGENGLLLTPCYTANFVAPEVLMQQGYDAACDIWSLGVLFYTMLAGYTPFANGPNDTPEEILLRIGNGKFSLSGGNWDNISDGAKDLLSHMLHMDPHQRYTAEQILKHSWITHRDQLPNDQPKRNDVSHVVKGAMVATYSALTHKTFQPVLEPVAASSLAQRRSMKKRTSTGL

Regarding `Oc1ccc(C2=Cc3ccc(O)cc3OC2)cc1` [compound 1, idronoxil], the remaining binding at 10 µM came to 94% in test [1]; 68% on CAMKK2; 70% on CLK3; 93% at MGC42105; 69% on NEK10; 71% at STK39. Also, the remaining binding at 10 µM came to 100% in test [2]; 100% at DDR2; 81% on RIPK2; 47% on SRC; 94% at PRKD2; 56% at DAPK2. Besides, the remaining binding at 10 µM on ERN1 amounted to 66%; at CLK2, 69%; at CABC1, 78%; on AURKC, 74%; on STK24 it was 79%; at ACVR1B it was 87%. In addition, the remaining binding at 10 µM at PKMYT1 is 78%.
